Measured values taken from patent US7122551B2, “Metalloproteinase inhibitor compounds” (AstraZeneca AB, priority 2000, dated 2006).

Columns and labels:
[1] = biological activity of separated enantiomers / diastereomers (test not specified); conditions: enantiomers compared by order of elution; test and target not stated

melting point [°C]	SMILES	Biological activity of separated enantiomers [1]
154 to 155	O=CN(O)C(CCc1ncc(F)cn1)CS(=O)(=O)N1CCN(c2ccc(Cl)cn2)CC1 (stereo not drawn) [Example 2, N-[1-([4-(5-chloropyridin-2-yl)piperazino]sulfonylmethyl)-3-(5-fluoropyrimidin-2-yl)propyl]-N-hydroxyformamide]	
124.5 to 126.5	O=CN(O)[C@@H](CCCc1ncccn1)CS(=O)(=O)N1CCN(c2ccc(Cl)cn2)CC1 [Example 4, N-[(1S)-1-({[4-(5-chloropyridin-2-yl)piperazino]sulfonyl}methyl)-4-(pyrimidin-2-yl)butyl]-N-hydroxyformamide]	
	O=CN(O)[C@@H](CCc1ncccn1)CS(=O)(=O)N1CCN(c2ccc(Cl)cn2)CC1 [Example 6 2nd enantiomer eluted, N-[(1S)-1-({[4-(5-chloropyridin-2-yl)piperazino]sulfonyl}methyl)-3-(pyrimidin-2-yl)propyl]-N-hydroxyformamide]	Biological activity lies in the compound eluted second from the column
